Each structure is given as a SMILES string.

The assay addresses Branched-chain-amino-acid aminotransferase, mitochondrial (Homo sapiens, UniProt O15382).

Branched-chain-amino-acid aminotransferase, mitochondrial, sequence (O15382 whole entry): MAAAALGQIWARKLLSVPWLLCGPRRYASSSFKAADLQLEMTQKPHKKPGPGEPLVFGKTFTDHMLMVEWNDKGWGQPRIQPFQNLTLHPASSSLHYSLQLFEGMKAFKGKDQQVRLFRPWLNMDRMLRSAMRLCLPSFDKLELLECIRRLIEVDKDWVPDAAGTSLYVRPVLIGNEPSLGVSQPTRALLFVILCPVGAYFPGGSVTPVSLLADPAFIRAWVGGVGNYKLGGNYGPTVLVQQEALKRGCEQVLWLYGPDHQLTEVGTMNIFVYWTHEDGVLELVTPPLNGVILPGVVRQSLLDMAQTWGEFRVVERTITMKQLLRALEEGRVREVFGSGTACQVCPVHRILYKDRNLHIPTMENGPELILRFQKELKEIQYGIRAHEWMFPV

With `Cc1ccccc1Oc1cc(-n2c(=O)cc(C(F)(F)F)[nH]c2=O)c2ccccc2c1` [BAY-771], the IC50 is given as 10.8 µM (not active).

For orientation: IC50 means the concentration at which inhibition is half-maximal. Read a low IC50 as greater potency.

These data come from ChEMBL document CHEMBL4507325 (2021).
